{
  "source": "paper PMC4408887",
  "about": "(Nature chemistry, 2015)",
  "key": {"[1]": {"system": "Akt1^E17K relative to Akt2^E17K", "experiment": "Point ELISA, Akt1 and Akt2 isoforms", "format": "binding", "settings": "100 nM protein, triplicate"}, "WT or E17K GST-Akt1": {"system": "WT or E17K GST-Akt1", "experiment": "Point ELISA in human serum", "format": "binding", "settings": "150 nM protein, 0%, 1% and 2% human serum in TBS"}, "[2]": {"system": "E17K versus WT PH Domain of Akt1 - PIP3 interaction", "experiment": "PIP3 agarose inhibition, E17K relative to WT", "format": "biochemical", "settings": "triligand 0.1-1000 eq"}, "[3]": {"target": "WT 33-mer PH Domain epitope of Akt1 (Homo sapiens, UniProt P31749)", "experiment": "Fluorescence polarization binding to WT 33-mer epitope"}, "[4]": {"target": "label-modified yleaf peptide used in fluorescence polarization", "experiment": "fluorescence polarisation"}, "full length Akt1 (WT)": {"target": "full length Akt1 (WT) (UniProt P31749 1-480)", "experiment": "fluorescence polarisation"}, "full length Akt1^E17K": {"target": "full length Akt1^E17K (UniProt P31749 1-480, E17K)", "experiment": "fluorescence polarisation"}},
  "note": "Positions of bridges follow the written chain, without caps; N, C: chain ends. Non-standard residues stand in square brackets, D forms with d. Residues, ends and D or L forms follow the SMILES beside them. Triazole bridges read from a SMILES are 1,4-linked. Chains are numbered I, II in the order given. No end group written: not given here. *: point of attachment. Biotin = O=C1N[C@H]2[C@H](CS[C@H]2CCCCC(=O)*)N1; Lys(N3) = [N-]=[N+]=NCCCC[C@H](N)C(=O)O; PEG5 = NCCOCCOCCOCCOCCOCCC(=O)O; Pra = C#CC[C@H](N)C(=O)O",
  "data": [
    {"molecule": "CC[C@@H](C)[C@@H](NC(=O)CCOCCOCCOCCOCCOCCNC(=O)CCCC[C@@H]1SC[C@@H]2NC(=O)N[C@@H]21)C(=O)N[C@@H](C(=O)N[C@H](CC(=O)O)C(=O)N[C@H](C)C(=O)N[C@H](CCC(=O)O)C(=O)N[C@@H](Cc1cn(CCCC[C@H](NC(C)=O)C(=O)N[C@H](Cc2ccc(O)cc2)C(=O)N[C@H](CC(C)C)C(=O)N[C@H](CCC(=O)O)C(=O)N[C@H](C)C(=O)N[C@H](Cc2ccccc2)C(=O)N[C@@H](Cc2cn(CCCC[C@H](NC(C)=O)C(=O)N[C@H](Cc3ccc(O)cc3)C(=O)N[C@H](CCCCN)C(=O)N[C@H](CO)C(=O)N[C@H](Cc3ccc(O)cc3)C(N)=O)nn2)C(=O)O)nn1)C(=O)O)C(C)C", "note": "[triligand] (I: Ac-[Lys(N3)][dY][dL][dE][dA][dF][Pra]-OH / II: {Biotin-PEG5}-[dI][dV][dD][dA][dE][Pra]-OH / III: Ac-[Lys(N3)][dY][dK][dS][dY]-NH2; triazole I:1-II:6, I:7-III:1; C-terminus assumed)", "values": [
      {"measurement": "preference for Akt1^E17K relative to Akt2^E17K", "setting": "[1]", "result": "slight preference for Akt1^E17K relative to the Akt2^E17K"},
      {"measurement": "reduction in binding efficiency in human serum", "setting": "WT or E17K GST-Akt1", "result": "very little reduction in binding efficiency"},
      {"measurement": "selective inhibition of E17K relative to WT", "setting": "[2]", "result": "significant selective inhibition of the E17K mutant relative to the WT"}
    ]},
    {"molecule": "CC(C)C[C@@H](NC(=O)[C@H](N)Cc1ccc(O)cc1)C(=O)N[C@H](CCC(=O)O)C(=O)N[C@H](C)C(=O)N[C@H](Cc1ccccc1)C(N)=O", "note": "[yleaf] (H-[dY][dL][dE][dA][dF]-NH2)", "values": [
      {"measurement": "Kd", "setting": "[3]", "result": "2800 ± 840", "unit": "nM"}
    ]},
    {"molecule": "E17K mutant 6-His-tagged 33-mer PH Domain peptide fragment of Akt1 (from UniProt P31749 1-33)", "values": [
      {"measurement": "Kd", "setting": "[4]", "result": 328, "unit": "nM"}
    ]},
    {"molecule": "WT 6-His-tagged 33-mer PH Domain peptide fragment of Akt1 (from UniProt P31749 1-33)", "values": [
      {"measurement": "Kd", "setting": "[4]", "result": 2800, "unit": "nM"}
    ]},
    {"molecule": "[dY][dL][dE][dA][dF] (also: label-modified, label not given here)", "note": "[label-modified yleaf peptide used in fluorescence polarization]", "values": [
      {"measurement": "Kd", "setting": "full length Akt1 (WT)", "result": "> 1000", "unit": "nM"},
      {"measurement": "Kd", "setting": "full length Akt1^E17K", "result": "54 ± 7", "unit": "nM"}
    ]}
  ]
}
